For the assay, the target named is T1, cloned human alpha-1A adrenergic receptors (α1a) (Homo sapiens, UniProt P35348).
T1 construct: expressed in transfected cells; membranes
T1 sequence (P35348 1-466): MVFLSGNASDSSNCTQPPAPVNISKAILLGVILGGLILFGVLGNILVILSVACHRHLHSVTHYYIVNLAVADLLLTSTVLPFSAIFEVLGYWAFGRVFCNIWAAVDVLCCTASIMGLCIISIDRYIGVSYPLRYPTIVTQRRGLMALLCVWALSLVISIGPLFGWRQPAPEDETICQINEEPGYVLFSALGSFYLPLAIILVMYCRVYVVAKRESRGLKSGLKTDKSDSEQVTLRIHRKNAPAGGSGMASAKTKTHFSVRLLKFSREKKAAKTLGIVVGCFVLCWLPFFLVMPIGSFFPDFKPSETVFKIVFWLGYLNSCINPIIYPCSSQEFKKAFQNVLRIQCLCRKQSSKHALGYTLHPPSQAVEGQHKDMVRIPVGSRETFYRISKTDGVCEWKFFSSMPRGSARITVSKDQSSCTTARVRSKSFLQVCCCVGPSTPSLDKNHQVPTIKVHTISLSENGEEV
In words: [3H]Prazosin binding to cloned human alpha-1A adrenergic receptors expressed in CHO cells. To be noted: read-out: halpha1Ki (nM) h = human. The source says: ^3H]Prazosin Binding to Cloned Human Alpha-1A Adrenergic Receptors (α1a) Expressed in Chinese Hamster Ovary Cells (CHO)
• Purpose: This in vitro assay is designed as a screen to identify compounds displaying a affinity for the human α1a adrenoceptor subtype expressed in the membrane fragments of CHO cells. The assay measures the ability of the test compounds to displace [^3H] prazosin from α1a sites. • The identification of multiple vascular α1-addrenoceptors (α1a, α1b, α1d) in vitro has provided impetus to define the role(s) of these subtypes in cardiovascular regulation in vivo (Vargas and Gorman, 1995). […] Prazosin is a potent antagonist of the human α1a-adrenoceptor subtype, which has been cloned and is expressed in the membrane fragments of CHO cells. • hα1a receptor: The cloning of the human α1a cDNA was accomplished first by screening a human prostate cDNA library (Clontech), from which a portion of the coding region was obtained. This DNA fragment was then used to screen a human leukocyte genomic library (Clontech), and the rest of the coding sequence was obtained. Later these two fragments were spliced together. The entire coding sequence was then fully sequenced including matching PCR sequence with original genomic coding sequence, thus ensuring splice sites were joined correctly (Schwinn et al., 1995). Once sequenced, the gene was subcloned into the expression vector pcDNA3 (Invitrogen). Plasmid DNA was then used for transfection into CHO cells and G418 resistant clones were isolated. A clone expressing high levels of the hα1a receptor (as determined by mRNA and receptor binding data) was chosen and pharmacologically characterized. • Culture Media Ingredients for Adherent α1a expressing CHO Culture: • A. HAM's F-12 (Celigro) • B. 10% 0.2 micron filtered Fetal Bovine Serum (FBS)(Celigro) • C. 1% 0.2 micron filtered Penicillin-Streptomycin (Celigro) • D. G418 0.2 micron filtered (Geneticin 400 μg/ml)(Celigro) • Cells are cultured using established methods and procedures in either 150×25 mm culture plates (scale up to 100 plates) or a combination of these plates and 70 roller bottles. One culturing/harvest cycle typically requires 2 weeks and yields between 100-400 mg protein. Plates or bottles are incubated at 37° C.+5% CO2. • Storage: Cells are harvested by mechanical scraping, washed using PBS, collected in 250 ml Corning polypropylene centrifuge tubes, spun down (1500 RPM) and resuspended in dH2O 10% DMSO (final volume per harvest is approximately 50 ml). Protein determination is made using the Biorad DC Assay Kit. Finally, the appropriate volume is aliquoted into a 2 ml Corning Cryovial (10 mg/1-1.5 ml) which is stored at −80° C.
• Assay Requirement: 0.5 cryovials per 96 well plate (assay volume=200 μl/well) • [^3H]-Ligand: [7-methoxy-^3H]-Prazosin: 1.0 nM (NEN, NET-823) • 70-87 Ci/mmol • Materials: Phentolamine mesylate (Research Biochemicals Int. #P-131) • 96 well flat bottom plates (Beckman) • Unifilter GF/B Plate (Packard) • Polyethylenimine (Sigma #P-3134) • TomTec or Packard Filtermate 196 Cell Harvesters • Packard TopCount Scintillation Counter • Buffers: A: 50 mM Tris HCl; 0.1% ascorbate, pH 7.7 (incubation buffer) • B: 50 mM Tris HCl; pH 7.7 (wash buffer) • Procedure: Assay additions are as follows (in the order indicated): • Total Binding=50 μl buffer A+50 μl [^3H]prazosin+100 μl membrane • Nonsp. Bd.=50 μl 10 μM phentolamine+50 μl [^3H]prazosin+100 μl membrane • Test Cpd.=50 μl compound+50 μl [^3H]prazosin+100 μl membrane • Compounds to be evaluated are weighed out to yield a 10 mM stock solution in DMSO in a 24 well polystyrene plate. This is diluted to a 0.5 mM stock in dH2O, Serial dilutions in Buffer A are made from which 50 μl additions to the plate are made in duplicate in order to achieve the final concentrations desired. Typically, one 96 well plate is used to evaluate 11 compounds at 4 concentrations (10^−6-10^−9 M) in duplicate. Total binding and nonspecific binding are determined in quadruplicate. […]

Structures are written as SMILES.

Regarding `CCN(C(=O)CCCN1CCN(c2csc3cc(F)ccc23)CC1)C1CCCCC1` [compound 826849], the Ki is 35.2 nM. As to `O=C(CCCN1CCN(c2csc3cc(F)ccc23)CC1)N(CCO)C1CCCCC1` [compound 826850], the Ki is 28.4 nM. The figure for `CC1CCCC(NC(=O)CCCN2CCN(c3csc4cc(C(F)(F)F)ccc34)CC2)C1` (racemic) [compound 826807] is 166000 nM; for `CC1CCCN(C(=O)CCCN2CCN(c3csc4cc(C(F)(F)F)ccc34)CC2)C1` (stereo not drawn) [compound 826815] it is 80.5 nM. The figure for `CC1CC(C)CN(C(=O)CCCN2CCN(c3csc4cc(F)ccc34)CC2)C1` (stereo not drawn) [compound 826858] is 9.42 nM; for `CC1CCCN1C(=O)CCCN1CCN(c2csc3cc(C(F)(F)F)ccc23)CC1` (stereo not drawn) [compound 826822] it is 32.2 nM.

As for `CC1CCCN(C(=O)CCCN2CCN(c3csc4cc(F)ccc34)CC2)C1` (stereo not drawn) [compound 826855], the Ki stood at 0.889 nM.

As to `O=C(CCCN1CCN(c2csc3cc(C(F)(F)F)ccc23)CC1)N1CCCC1` [compound 826819], the Ki amounted to 49 nM.

In the case of `CC1CCCCN1C(=O)CCCN1CCN(c2csc3cc(F)ccc23)CC1` (stereo not drawn) [compound 826853], the Ki came to 0.258 nM. On to `O=C(CCCN1CCN(c2csc3cc(F)ccc23)CC1)N1CCC(O)CC1` [compound 826852], for which the Ki is 6.16 nM. For `CC1CC(C)CN(C(=O)CCCN2CCN(c3csc4cc(C(F)(F)F)ccc34)CC2)C1` (stereo not drawn) [compound 826818], the Ki is 124 nM. The figure for `C[C@H]1CC[C@H](NC(=O)CCCN2CCN(c3csc4cc(F)ccc34)CC2)CC1` [compound 826844] is 23.4 nM. Take `CN(C)C1CCN(C(=O)CCCN2CCN(c3csc4cc(C(F)(F)F)ccc34)CC2)C1` (stereo not drawn) [compound 826823]: the Ki turned out to be 148 nM. Regarding `CC1CCN(C(=O)CCCN2CCN(c3csc4cc(F)ccc34)CC2)CC1` [compound 826854], the Ki was 0.0713 nM.

With `CC[C@H]1CC[C@H](NC(=O)CCCN2CCN(c3csc4cc(F)ccc34)CC2)CC1` [compound 826846], the Ki was determined as 93.9 nM. In the case of `CN(C(=O)CCCN1CCN(c2csc3cc(F)ccc23)CC1)C1CCCCC1` [compound 826848] it was 12.3 nM; in that of `O=C(CCCN1CCN(c2csc3cc(C(F)(F)F)ccc23)CC1)N(CCO)C1CCCCC1` [compound 826810], 200 nM; in that of `CC1CCCCN1C(=O)CCCN1CCN(c2csc3cc(C(F)(F)F)ccc23)CC1` (stereo not drawn) [compound 826813], 57 nM.

On to `O=C(CCCN1CCN(c2csc3cc(F)ccc23)CC1)N1CCC(N2CCCC2)CC1` [compound 826856], for which the Ki was found to be 15.3 nM. On to `CC1CCCC(NC(=O)CCCN2CCN(c3csc4cc(F)ccc34)CC2)C1` (stereo not drawn) [compound 826847], for which the Ki was 0.513 nM. As to `O=C(CCCN1CCN(c2csc3cc(C(F)(F)F)ccc23)CC1)N1CCC(N2CCCC2)CC1` [compound 826816], the Ki came out at 249 nM.

Turning to `CCOC(=O)C1CCN(C(=O)CCCN2CCN(c3csc4cc(F)ccc34)CC2)CC1` [compound 826851], the Ki turned out to be 18.9 nM. `CC1CCCN1C(=O)CCCN1CCN(c2csc3cc(F)ccc23)CC1` (stereo not drawn) [compound 826862]: the Ki worked out at 0.637 nM.

On to `CCOC(=O)[C@H]1CC[C@H](NC(=O)CCCN2CCN(c3csc4cc(F)ccc34)CC2)CC1` [compound 826845], for which the Ki was 5.44 nM. With `O=C(CCCN1CCN(c2csc3cc(F)ccc23)CC1)NC1CCCC1` (racemic) [compound 826860], the Ki worked out at 0.516 nM. In the case of `O=C(CCCN1CCN(c2csc3cc(F)ccc23)CC1)NC1CCCCC1` [compound 826861], the Ki is 9.55 nM. In the case of `O=C(CCCN1CCN(c2csc3cc(C(F)(F)F)ccc23)CC1)NC1CCCCC1` [compound 826821] it was 1280 nM. In the case of `O=C(CCCN1CCN(c2csc3cc(C(F)(F)F)ccc23)CC1)N1CCC(O)CC1` [compound 826812] it was 658 nM; in that of `CC1CCN(C(=O)CCCN2CCN(c3csc4cc(C(F)(F)F)ccc34)CC2)CC1` [compound 826814], 89.3 nM. The figure for `CCOC(=O)C1CCN(C(=O)CCCN2CCN(c3csc4cc(C(F)(F)F)ccc34)CC2)CC1` [compound 826811] is 223 nM; for `O=C(CCCN1CCN(c2csc3cc(F)ccc23)CC1)N1CCCC1` [compound 826859] it is 4 nM. For `O=C(CCCN1CCN(c2csc3cc(C(F)(F)F)ccc23)CC1)NC1CCCC1` [compound 826820], the Ki worked out at 129 nM.

For `CN(C(=O)CCCN1CCN(c2csc3cc(C(F)(F)F)ccc23)CC1)C1CCCCC1` [compound 826808], the Ki was determined as 126 nM.

These data come from patent publication US7772252B2, “Heterocyclic substituted carbonyl derivatives and their use as dopamine D3 receptor ligands” (Aventis Pharmaceuticals Inc., priority 2001, dated 2010).
